Read-outs that look alike come from different tables or passages of the source.
Experiments:
[1] = tested on: Leishmania amazonensis promastigotes; assay: Leishmanicidal activity against promastigotes (alamarBlue assay); assay type: cell-based; conditions: 72 h, mean ± SD, read-out: inhibitory concentration 50 (IC50), promastigote stage, L. amazonensis
Protocol: (§1) Initial screening of the 160 compounds against Leishmania promastigotes was performed at 10 μM following MMV foundation instructions provided with the box. The compound activity was assessed using the modified alamarBlue® assay (Invitrogen/Life Technologies, Madrid, Spain) with 10^6 promastigotes per well. DMSO concentration never surpassed 0.1% (v/v) to avoid impacting parasite proliferation or morphology. Subsequently, an EnSpire multimode plate reader (PerkinElmer, MA, USA) was used to measure fluorescence after 72 h. […] Serial dilutions were made in 96-well plates and incubated with parasites for 72 h after adding alamarBlue®. IC50 values were calculated using SigmaPlot 14.0 (Systat Software Inc., Chicago, IL, USA) based on fluorescence measurements. Each concentration was tested in duplicate across three independent experiments.

[2] = tested on: Leishmania donovani promastigotes; assay: as above; assay type: cell-based; conditions: 72 h; for IC50: Leishmania donovani, read-out: inhibitory concentration 50 (IC50), promastigote stage, L. donovani
Protocol: as §1

[3] = tested on: L. amazonensis intracellular amastigotes; assay: Intracellular amastigote activity (parasite rescue and transformation assay); assay type: cell-based, Leishmania amazonensis; conditions: for Selectivity index (CC50/IC50): CC50 murine macrophages / IC50 L. amazonensis amastigotes
Protocol: Intracellular amastigote activity against L. amazonensis was measured through a parasite rescue and transformation assay for the purchased compounds. Macrophages were seeded in a 96-well plate and infected with promastigotes at the metacyclic stage for subsequent compound treatment. After incubation, macrophages were lysed, and the medium and conditions were changed to stimulate amastigote transformation. The results were assessed using alamarBlue® [28].

[4] = tested on: Leishmania amazonensis promastigotes; assay: Mitochondrial membrane potential disruption (JC-1); assay type: cell-based; conditions: 24 h with IC90, vs negative control
Protocol: JC-1 Mitochondrial Membrane Potential kit (Cayman Chemical, Ann Arbor, MI, USA) was employed following the manufacturer’s instructions. […] Three independent experiments were conducted for this assay.

[5] = promastigotes, alamarBlue, mean ± SD, w/a: without activity
[6] = Leishmania amazonensis, Macrophage, in Mus musculus, intracellular amastigotes in murine macrophages, read-out: IC50, amastigote stage, L. amazonensis

| Compound | IC50 [1] | IC50 ([1]; Leishmania amazonensis) | IC50 [2, 5] | Selectivity index (CC50/IC50) [3] | IC50 [3, 6] | change in mitochondrial membrane potential (ΔΨm) [4] | other results |
| --- | --- | --- | --- | --- | --- | --- | --- |
| C[C@@H]1CCCN1CCc1cc2cc(-c3ccc(C#N)cc3)ccc2o1 [ABT239] | 1310 ± 70 nM | < 1400 nM | 1680 ± 250 nM | 46 | 490 ± 130 nM | – | – |
| C=CCNc1nc(NCC=C)nc(N2CCN(C(c3ccc(F)cc3)c3ccc(F)cc3)CC2)n1 [Almitrine] | 1190 ± 20 nM | < 1400 nM | – | – | < 2400 nM | significant decrease | inhibitory concentration 50 (IC50), promastigote stage, L. donovani [2, 5]: w/a at 100; IC50 ([3]; read-out: IC50, amastigote stage, L. amazonensis, intracellular amastigotes in murine macrophages): 2180 ± 470 nM |
| CC(C)C[C@H](NC(=O)[C@H](Cc1ccccc1)NC(=O)c1cnccn1)B(O)O [Bortezomib] | – | 420 ± 80 nM | 37200 ± 2510 nM | – | – | significant decrease | IC50 ([3]; Leishmania amazonensis, Macrophage, in Mus musculus, read-out: IC50, amastigote stage, L. amazonensis, intracellular amastigotes in murine macrophages): 40 ± 10 nM |
| CO[C@@H]1[C@H](N(C)C(=O)c2ccccc2)C[C@H]2O[C@]1(C)n1c3ccccc3c3c4c(c5c6ccccc6n2c5c31)C(=O)NC4 [Midostaurin] | – | – | – | – | – | – | activity against the amastigote form ([3]; at 10 μM): no activity |
| CCCCCCCCCCCCCCCCOP(=O)([O-])OCC[N+](C)(C)C [Miltefosine] | – | – | – | 23 | – | – | IC50 [2]: 72200 ± 3060 nM |
| CC(C)N1CCN(c2ccc(OCC3COC(Cn4cncn4)(c4ccc(Cl)cc4Cl)O3)cc2)CC1 (stereo not drawn) [Terconazole] | – | 3820 ± 1040 nM | 11600 ± 1380 nM | 19 | < 2400 nM | significant decrease | IC50 ([3]; intracellular amastigotes in murine macrophages, read-out: IC50, amastigote stage, L. amazonensis): 2380 ± 400 nM |

From publication PMC10974317, “Anti-COVID Drugs (MMV COVID Box) as Leishmanicidal Agents: Unveiling New Therapeutic Horizons” (Pharmaceuticals, 2024)
